In PubChem BioAssay AID248 (DTP/NCI, 2004):
Values joined by “and” are separate entries in the source; they are usually repeats but may differ in a detail not shown here. Equal entries are not always repeated. Toxic doses and inconclusive results are not listed. Cut-off read from the data, not from the text of the source: active = T/C of 150% or more; inactive = T/C below 125%. Square brackets hold non-standard residues; d marks the D form. Peptide text beside a SMILES is read from it. * marks the point of attachment. ξ: configuration not given here. Cbz = O=C(OCc1ccccc1)*; ξI = CCC(C)C(N)C(=O)O

Test system: L1210 leukemia ip in BDF1 mice, survival T/C
Test: NCI In Vivo Anticancer Drug Screen. Data for tumor model L1210 Leukemia (intraperitoneal) in B6D2F1 (BDF1) mice
Details: endpoint: mean survival time, higher = longer survival
Procedure, shortened: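 Transplantable tumor model; survival measured in treated vs vehicle control mice. Value = treated/control.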

[1] = dose: 100.0 mg/kg/injection, schedule: Q04DX003 (ip), vehicle: Klucel (hydroxypropylcellulose) (HPC)
[2] = dose: 100.0 mg/kg/injection, schedule: Q04DX003 (ip), vehicle: saline
[3] = dose: 200.0 mg/kg/injection, schedule: Q04DX003 (ip), vehicle: saline
[4] = dose: 400.0 mg/kg/injection, schedule: Q04DX003 (ip), vehicle: saline
[5] = dose: 100.0 mg/kg/injection, schedule: Q01DX009 (ip), vehicle: saline with Tween-80
[6] = dose: 100.0 mg/kg/injection, schedule: Q04DX003 (ip), vehicle: saline with Tween-80
[7] = dose: 200.0 mg/kg/injection, schedule: Q04DX003 (ip), vehicle: saline with Tween-80
[8] = dose: 400.0 mg/kg/injection, schedule: Q04DX003 (ip), vehicle: saline with Tween-80
[9] = dose: 200.0 mg/kg/injection, schedule: Q01DX009 (ip), vehicle: saline with Tween-80
[10] = dose: 400.0 mg/kg/injection, schedule: Q01DX009 (ip), vehicle: saline with Tween-80
[11] = dose: 100.0 mg/kg/injection, schedule: Q01DX009 (ip), vehicle: Klucel (hydroxypropylcellulose) (HPC)
[12] = dose: 200.0 mg/kg/injection, schedule: Q01DX009 (ip), vehicle: Klucel (hydroxypropylcellulose) (HPC)
[13] = dose: 400.0 mg/kg/injection, schedule: Q01DX009 (ip), vehicle: Klucel (hydroxypropylcellulose) (HPC)
[14] = dose: 200.0 mg/kg/injection, schedule: Q04DX003 (ip), vehicle: Klucel (hydroxypropylcellulose) (HPC)
[15] = dose: 400.0 mg/kg/injection, schedule: Q04DX003 (ip), vehicle: Klucel (hydroxypropylcellulose) (HPC)

Measured: T/C

CC(=O)OC1CCC2(C)C(CCC3C2CCC2(C)C(c4ccc(=O)oc4)C(OC(C)=O)CC32O)C1 (stereo unspecified)
inactive: dose: 1.0 mg/kg/injection, schedule: Q01DX001 (sc), vehicle: steriod suspending solution 96 % of control | dose: 2.0 mg/kg/injection, schedule: Q01DX001 (sc), vehicle: steriod suspending solution 98 % of control | dose: 4.0 mg/kg/injection, schedule: Q01DX001 (sc), vehicle: steriod suspending solution 93 % of control | dose: 8.0 mg/kg/injection, schedule: Q01DX001 (sc), vehicle: steriod suspending solution 109 % of control | dose: 12.0 mg/kg/injection, schedule: Q01DX001 (sc), vehicle: steriod suspending solution 98 % of control | dose: 16.0 mg/kg/injection, schedule: Q01DX001 (sc), vehicle: steriod suspending solution 101 % of control | dose: 32.0 mg/kg/injection, schedule: Q01DX001 (sc), vehicle: steriod suspending solution 108 % of control | dose: 64.0 mg/kg/injection, schedule: Q01DX001 (sc), vehicle: steriod suspending solution 103 % of control | dose: 128.0 mg/kg/injection, schedule: Q01DX001 (sc), vehicle: steriod suspending solution 111 % of control

CC1OC(C2COC(C)(C)O2)C2OCOC12 (stereo unspecified)
inactive: dose: 100.0 mg/kg/injection, schedule: Q04DX002 (ip), vehicle: saline with Tween-80 100 % of control | dose: 200.0 mg/kg/injection, schedule: Q04DX002 (ip), vehicle: saline with Tween-80 100 % of control | dose: 400.0 mg/kg/injection, schedule: Q04DX002 (ip), vehicle: saline with Tween-80 100 % of control

CCCCNc1c(C2=NCCN2)cnc2c1cnn2CC
inactive: dose: 25.0 mg/kg/injection, schedule: Q04DX003 (ip), vehicle: Klucel (hydroxypropylcellulose) (HPC) 92 % of control | dose: 50.0 mg/kg/injection, schedule: Q04DX003 (ip), vehicle: Klucel (hydroxypropylcellulose) (HPC) 99 % of control | [1] 90 % of control and 92 % of control

Nc1cc(Cl)ccc1[N+](=O)[O-]
inactive: [2] 103 % of control | [3] 95 % of control | [4] 96 % of control

COc1ccc2oc(=O)[nH]c2c1
inactive: dose: 100.0 mg/kg/injection, schedule: Q01DX001 (ip), vehicle: saline with Tween-80 100 % of control | dose: 200.0 mg/kg/injection, schedule: Q01DX001 (ip), vehicle: saline with Tween-80 100 % of control | dose: 400.0 mg/kg/injection, schedule: Q01DX001 (ip), vehicle: saline with Tween-80 100 % of control

N=C(N)S(=O)O
inactive: [5] 104 % of control

CC(C)(C)NCCCC(=O)O
inactive: [6] 110 % of control | [7] 100 % of control | [8] 92 % of control

N#Cc1ccc[n+](CCCl)c1
inactive: dose: 30.0 mg/kg/injection, schedule: Q01DX Z (ip), vehicle: saline 95 % of control

CN(C)c1ccc(/C=N/NC(=O)Cc2cccc3ccccc23)cc1
inactive: [5] 90 % of control | [9] 86 % of control | [10] 86 % of control

CCc1ccc(C)[n+](C)c1
inactive: dose: 75.0 mg/kg/injection, schedule: Q01DX001 (ip), vehicle: saline 96 % of control | dose: 150.0 mg/kg/injection, schedule: Q01DX001 (ip), vehicle: saline 95 % of control

O=S(=O)(O)C(O)c1ccc(Cl)cc1Cl (stereo unspecified)
inactive: [2] 102 % of control | [3] 102 % of control | [4] 107 % of control

O=S(=O)(O)c1ccc(-c2nc(-c3ccccc3)c(-c3ccccc3)[nH]2)cc1
inactive: dose: 100.0 mg/kg/injection, schedule: Q01DX009 (ip), vehicle: saline 102 % of control | dose: 200.0 mg/kg/injection, schedule: Q01DX009 (ip), vehicle: saline 102 % of control | dose: 400.0 mg/kg/injection, schedule: Q01DX009 (ip), vehicle: saline 101 % of control

NC(=S)N/N=C/c1cc(Br)c(O)c(Br)c1
inactive: [11] 104 % of control | [12] 91 % of control | [13] 98 % of control

Nc1nc(-c2ccccc2)c(CCCNC(=O)c2ccc([N+](=O)[O-])cc2)c(=O)[nH]1
inactive: [1] 93 % of control | [14] 93 % of control | [15] 90 % of control

C=CCSc1nc2c(N)ncnc2n1C1OC(CO)C(O)C1O (stereo unspecified)
inactive: dose: 100.0 mg/kg/injection, schedule: Q01DX005 (ip), vehicle: saline 103 % of control | dose: 200.0 mg/kg/injection, schedule: Q01DX005 (ip), vehicle: saline 98 % of control

CN(C)C(=O)Sc1c(Cl)cc(Cl)cc1S(=O)(=O)F
inactive: [11] 97 % of control | [12] 100 % of control | [13] 97 % of control

CCOC(=O)C1=C(C)NC(=O)NN1C(=O)OCC
inactive: dose: 50.0 mg/kg/injection, schedule: Q01DX009 (ip), vehicle: saline 113 % of control

COC(=O)C12N=NN(c3ccccc3)C1(C(=O)OC)C1CCC2C1 (stereo unspecified)
inactive: [5] 106 % of control | [1] 96 % of control | [9] 94 % of control | [14] 102 % of control | [10] 98 % of control | [15] 97 % of control

Cn1ccc(=O)[nH]c1=O
inactive: [1] 96 % of control | [14] 89 % of control | [15] 115 % of control

CCC(C)C(NC(=O)CNC(=O)OCc1ccccc1)C(=O)O (stereo not drawn) (Cbz-Gly-[ξI]-OH)
inactive: [6] 107 % of control | [7] 97 % of control | [8] 98 % of control

NCc1cn(C2OC(CO)C(O)C2O)c2ncnc(N)c12 (stereo unspecified)
inactive: dose: 1.56 mg/kg/injection, schedule: Q01DX009 (ip), vehicle: saline 90 % of control | dose: 3.12 mg/kg/injection, schedule: Q01DX005 (ip), vehicle: saline 92 % of control | dose: 3.12 mg/kg/injection, schedule: Q01DX009 (ip), vehicle: saline 107 % of control | dose: 6.25 mg/kg/injection, schedule: Q01DX005 (ip), vehicle: saline 108 % of control

Cc1ccc(N2C(=O)C=C(c3ccccc3)C2=O)cc1
inactive: dose: 75.0 mg/kg/injection, schedule: Q04DX003 (ip), vehicle: Klucel (hydroxypropylcellulose) (HPC) 104 % of control | dose: 150.0 mg/kg/injection, schedule: Q04DX003 (ip), vehicle: Klucel (hydroxypropylcellulose) (HPC) 105 % of control | dose: 300.0 mg/kg/injection, schedule: Q04DX003 (ip), vehicle: Klucel (hydroxypropylcellulose) (HPC) 104 % of control

[O-][n+]1ccc2ccccc2c1
inactive: dose: 50.0 mg/kg/injection, schedule: Q01DX005 (ip), vehicle: Klucel (hydroxypropylcellulose) (HPC) 102 % of control | dose: 50.0 mg/kg/injection, schedule: Q01DX009 (ip), vehicle: Klucel (hydroxypropylcellulose) (HPC) 101 % of control | dose: 100.0 mg/kg/injection, schedule: Q01DX001 (ip), vehicle: other 110 % of control | dose: 100.0 mg/kg/injection, schedule: Q01DX005 (ip), vehicle: Klucel (hydroxypropylcellulose) (HPC) 97 % of control | [11] 108 % of control | dose: 100.0 mg/kg/injection, schedule: Q04DX002 (ip), vehicle: Klucel (hydroxypropylcellulose) (HPC) 106 % of control | [2] 111 % of control | dose: 200.0 mg/kg/injection, schedule: Q01DX001 (ip), vehicle: other 100 % of control | dose: 200.0 mg/kg/injection, schedule: Q01DX005 (ip), vehicle: Klucel (hydroxypropylcellulose) (HPC) 105 % of control | [12] 111 % of control | dose: 200.0 mg/kg/injection, schedule: Q04DX002 (ip), vehicle: Klucel (hydroxypropylcellulose) (HPC) 109 % of control | [3] 114 % of control | dose: 400.0 mg/kg/injection, schedule: Q01DX001 (ip), vehicle: other 103 % of control
